Source: PubChem BioAssay AID1963848 (Molecular Pharmacology Branch, DTP, NCI, 2024)

Test system: 379773-124-R-J2-PDC spheroid viability
Experiment: Anticancer human tumor 379773-124-R-J2-PDC patient-derived endometrial carcinoma cell line growth inhibition [POLQ]
Conditions: spheroids with HUVEC and MSC; for IC50: curve of first compound; for viability, T/C: stronger effect = lower value
Method: Multicellular complex tumor spheroid response to Polymerase (POL) inhibitors (novobiocin, ART-558, RP6685) in combination with a variety of drugs and investigational agents in selected tumor cell lines
The POL inhibitors (novobiocin, ART-558, and RP6685) were evaluated both individually and in combination with standard of care and investigational anticancer small molecules within a complex spheroid model of solid tumors. . Complex spheroids include a stromal component modeled by human endothelial cells (HUVEC) and fibroblasts modeled by human mesenchymal stem cells (MSCs). The concentration ranges selected for each drug and investigational agent were based upon clinically achievable concentrations if the clinical Cmax of the agent was known.
Compounds. The drugs and investigational agents: novobiocin (NSC847541), ART-558 (NSC835418), RP-6685 (NSC848927), peposertib (NSC802822), ceralasertib (NSC780249), elimusertib (NSC800525), camonsertib (NSC841442), AZD-1390 (NSC803789), olaparib (NSC753686), talazoparib (NSC767125), rucaparib (NSC756644), sotorasib (NSC818433), MRTX-1133 (NSC836407), SN-38 (NSC673596), topotecan (NSC609699), epotoside (NSC141540), doxorubicin (NSC123127), gemcitabine (NSC613327), 5-fluorouracil (NSC19893), paclitaxel (NSC125973), vemurafenib (NSC761431), MSA-2 (NSC828583), SN-011 (NSC837082), adavosertib (NSC754352), prexasertib (NSC758257), carboplatin (NSC241240) and oxaliplatin (NSC266046), were obtained from the National Cancer Institute (NCI) Developmental Therapeutics Program Chemical Repository (21). The FDA-approved anticancer drug set is available from the Developmental Therapeutics Program at https://dtp.cancer.gov/organization/dscb/obtaining/. […] The stock solutions were prepared in dimethyl sulfoxide (DMSO, Sigma-Aldrich, St. Louis, MO, cat. D2650), except for the platinum compounds which were prepared in saline (Quality Biological, Gaithersburg, MD, cat. 114-055-101), at 800-fold the tested concentration and stored at -70 degrees C prior to their use. All drugs and investigational agents were tested over a range starting from a high concentration at or near the clinical Cmax and decreasing in half-log increments. If the clinical Cmax for an agent had not been determined, the highest concentration tested was 10 microM, except for SN-38, which was tested at a high concentration of 1 microM.
Cell Culture. All cells were maintained in an incubator at 37 degrees C and 5% CO2 with 95% humidity. The PDC lines were cultured according to standard operating procedures established by the NCI PDMR (https://pdmr.cancer.gov). Table 3 of the manuscript, lists the cell lines along with the number of the three cell types plated to form the mct-spheroids and media for tumor cell growth. After thawing, all PDC lines, except 997537-175-T-J1-PDC and 415267-285-R-J2-PDC, were cultured in Matrigel-coated flasks prepared with a working solution of 1X Ham's F-12 nutrient mix, without supplementation (Thermo Fisher Scientific, cat. 11765054), 100 U/mL penicillin-streptomycin (Thermo Fisher Scientific, cat. 15140122), and 2.5% Matrigel (Corning Inc., Corning, NY, cat. 354248) for the first three passages. The two PDC lines 997537-175-T-J1-PDC and 415267-285-R-J2-PDC were cultured on uncoated flasks. The 857933-349-R-J2-PDC line was cultured in 6C/Colon 1B media containing advanced DMEM/F-12 (Thermo Fisher Scientific, cat. 12634028), 10 mM HEPES (Thermo Fisher Scientific, cat. 15630080), 1X GlutaMAX supplement (Thermo Fisher Scientific, cat. 35050061), 0.1 mg/mL primocin (InvivoGen, San Diego, CA, cat. ant-pm-2), 10% defined fetal bovine serum, heat inactivated (HyClone Laboratories Inc., Logan, UT, cat. SH30070.03HI), 50% L-WRN conditioned media (ATCC, cat. CRL-3276), 1.25 mM N-Acetyl-L-cysteine (Sigma-Aldrich, cat. A9165), 10 mM nicotinamide (Sigma-Aldrich, cat. N0636), 1X B-27 supplement (Thermo Fisher Scientific, cat. 17504044), 1X N-2 supplement (Thermo Fisher Scientific, cat. […]

[1] = second compound 0.0316 µM, first compound 0.0316 µM
[2] = second compound 0.0316 µM, first compound 0.1 µM
[3] = second compound 0.0316 µM, first compound 0.316 µM
[4] = second compound 0.0316 µM, first compound 1 µM
[5] = second compound 0.0316 µM, first compound 3.16 µM
[6] = second compound 0.0316 µM, first compound 10 µM
[7] = second compound 0.1 µM, first compound 0.0316 µM
[8] = second compound 0.1 µM, first compound 0.1 µM
[9] = second compound 0.1 µM, first compound 0.316 µM
[10] = second compound 0.1 µM, first compound 1 µM
[11] = second compound 0.1 µM, first compound 3.16 µM
[12] = second compound 0.1 µM, first compound 10 µM
[13] = second compound 0.316 µM, first compound 0.0316 µM
[14] = second compound 0.316 µM, first compound 0.1 µM
[15] = second compound 0.316 µM, first compound 0.316 µM
[16] = second compound 0.316 µM, first compound 1 µM
[17] = second compound 0.316 µM, first compound 3.16 µM
[18] = second compound 0.316 µM, first compound 10 µM
[19] = second compound 1 µM, first compound 0.0316 µM
[20] = second compound 1 µM, first compound 0.1 µM
[21] = second compound 1 µM, first compound 0.316 µM
[22] = second compound 1 µM, first compound 1 µM
[23] = second compound 1 µM, first compound 3.16 µM
[24] = second compound 1 µM, first compound 10 µM
[25] = second compound 3.16 µM, first compound 0.0316 µM
[26] = second compound 3.16 µM, first compound 0.1 µM
[27] = second compound 3.16 µM, first compound 0.316 µM
[28] = second compound 3.16 µM, first compound 1 µM
[29] = second compound 3.16 µM, first compound 3.16 µM
[30] = second compound 3.16 µM, first compound 10 µM
[31] = second compound 10 µM, first compound 0.0316 µM
[32] = second compound 10 µM, first compound 0.1 µM
[33] = second compound 10 µM, first compound 0.316 µM
[34] = second compound 10 µM, first compound 1 µM
[35] = second compound 10 µM, first compound 3.16 µM
[36] = second compound 10 µM, first compound 10 µM
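Also: spheroids exposed to drugs for seven days before readout.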
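For viability, T/C in this document: percent viability relative to DMSO vehicle control taken as 100%.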

Molecule `CC1COCCN1c1cc(-c2ccnn2C)c2ccnc(-c3ccn[nH]3)c2n1` (centres undefined) + COC1C(OC(N)=O)C(O)C(Oc2ccc3c(O)c(NC(=O)c4ccc(O)c(CC=C(C)C)c4)c(=O)oc3c2C)OC1(C)C has an IC50 (second compound 0.0316 µM) of 76.8 nM, an IC50 (second compound 0.1 µM) of 81.1 nM and an IC50 (second compound 0.316 µM) of 104 nM. The IC50 (second compound 1 µM) was 73.9 nM, the IC50 (second compound 3.16 µM) was 111 nM and the IC50 (second compound 10 µM) was 82.7 nM. It also gave a viability, T/C [1] of 75.7%, a viability, T/C [2] of 42.4% and a viability, T/C [3] of 10.5%. For the same molecule, the viability, T/C [4] was 9.05%, the viability, T/C [5] was 8.71% and the viability, T/C [6] was 5.49%. The viability, T/C [7] was 85.5%, the viability, T/C [8] was 42.1% and the viability, T/C [9] was 9.78%. It also gave a viability, T/C [10] of 8.09%, a viability, T/C [11] of 9.06% and a viability, T/C [12] of 6.55%. For the same molecule, the viability, T/C [13] was 82.7%, the viability, T/C [14] was 51.4% and the viability, T/C [15] was 11.2%. For the same molecule, the viability, T/C [16] was 7.55%, the viability, T/C [17] was 8.92% and the viability, T/C [18] was 7.56%. The viability, T/C [19] was 83.3%, the viability, T/C [20] was 38.1% and the viability, T/C [21] was 9.64%. The viability, T/C [22] was 8.17%, the viability, T/C [23] was 9.6% and the viability, T/C [24] was 5.36%. It also gave a viability, T/C [25] of 64.1%, a viability, T/C [26] of 54% and a viability, T/C [27] of 11.1%. For the same molecule, the viability, T/C [28] was 7.3%, the viability, T/C [29] was 8.49% and the viability, T/C [30] was 6.71%. The viability, T/C [31] was 86.9%, the viability, T/C [32] was 42.7% and the viability, T/C [33] was 10.4%. It also gave a viability, T/C [34] of 7.51%, a viability, T/C [35] of 9.13% and a viability, T/C [36] of 5.64%.
Molecule `CCc1cc2c(N3CCc4c(cc(Cn5ccnc5)cc4-c4cn(C)nc4C(F)(F)F)C3=O)ccnc2c(OC)n1` + COC1C(OC(N)=O)C(O)C(Oc2ccc3c(O)c(NC(=O)c4ccc(O)c(CC=C(C)C)c4)c(=O)oc3c2C)OC1(C)C has an IC50 (second compound 0.0316 µM) of 3420 nM, an IC50 (second compound 0.1 µM) of 2600 nM and an IC50 (second compound 0.316 µM) of 2420 nM. For the same molecule, the IC50 (second compound 1 µM) was 3580 nM, the IC50 (second compound 3.16 µM) was 1790 nM and the IC50 (second compound 10 µM) was > 10000 nM. It also gave a viability, T/C [1] of 79.6%, a viability, T/C [2] of 68.7% and a viability, T/C [3] of 62.5%. It also gave a viability, T/C [4] of 58.6%, a viability, T/C [5] of 52.4% and a viability, T/C [6] of 42.6%. It also gave a viability, T/C [7] of 79.5%, a viability, T/C [8] of 64.2% and a viability, T/C [9] of 59.7%. For the same molecule, the viability, T/C [10] was 56.1%, the viability, T/C [11] was 52.3% and the viability, T/C [12] was 42.3%. The viability, T/C [13] was 75.8%, the viability, T/C [14] was 68% and the viability, T/C [15] was 59.1%. For the same molecule, the viability, T/C [16] was 57.2%, the viability, T/C [17] was 48.2% and the viability, T/C [18] was 42.3%. For the same molecule, the viability, T/C [19] was 66.7%, the viability, T/C [20] was 65.4% and the viability, T/C [21] was 58.3%. The viability, T/C [22] was 58.1%, the viability, T/C [23] was 49.5% and the viability, T/C [24] was 44.7%. It also gave a viability, T/C [25] of 77.7%, a viability, T/C [26] of 65% and a viability, T/C [27] of 55.6%. The viability, T/C [28] was 53.4%, the viability, T/C [29] was 52% and the viability, T/C [30] was 42.1%. It also gave a viability, T/C [31] of 83.3%, a viability, T/C [32] of 59.6% and a viability, T/C [33] of 64.2%. For the same molecule, the viability, T/C [34] was 63.8%, the viability, T/C [35] was 51.1% and the viability, T/C [36] was 51.1%.
